Assay results taken from US20090208448A1, “Inhibition of angiogenesis” (priority 2008, published 2009).
“Also recorded” adds a separate entry of the source.

Key:
serum cholesterol = assay: Serum cholesterol levels in diet/ezetimibe SCID mouse cohorts (Infinity colorimetric assay); assay type: in vivo, SCID mice; conditions: ezetimibe 30 mg/kg/d, 4 weeks, both LFNC and HFHC diet groups, drug F=23.48, p<0.001
Procedure: Mice and Tumor Xenografts. 5 week old SCID mice were obtained from the Massachusetts General Hospital and were fed a low fat/no cholesterol diet (LFNC) (Research Diets, New Brunswick, N.J. diet # D12102) for two weeks, blood was drawn from the saphenous tail vein and the serum cholesterol concentration was determined using the Infinity Cholesterol Liquid Stable Reagent (Thermo Electron Corp.). For intact (non-castrated) mice, the animals were divided into the high fat/high cholesterol diet (HFHC) (Research Diets, diet # D12108) and LFNC groups with and without ezetimibe (30 mg/kg/day; Schering-Plough, New Brunswick, N.J.) and the mice continued on these diets for four weeks. For castrated mice, the mice were divided into 4 groups, 2 groups were castrated, and 2 groups were left intact. […] Tumors were measured daily from the initiation of the first palpable tumors and the mice sacrificed prior to reaching the maximum tumor burden (13-23 days post implantation). Terminal bleeds were taken (Cardiac puncture) for serology (triglyceride, bilirubin and other liver function tests were performed in the Dept. of Laboratory Medicine, Children's Hospital Boston, androgen levels were determined by a testosterone EIA, Diagnostic Systems Laboratories, Webster, Tex.). Tumors were removed, measured, weighed and either placed in OCT solution (Tissue-Tek, Torrance, Calif.) or snap frozen. […]

[1] = test system: LNCaP human prostate tumor xenografts; assay: Growth of implanted LNCaP prostate tumor xenografts (volume, wet weight, take); assay type: in vivo, SCID mice
Procedure: (§1) Mice and Tumor Xenografts. 5 week old SCID mice were obtained from the Massachusetts General Hospital and were fed a low fat/no cholesterol diet (LFNC) (Research Diets, New Brunswick, N.J. diet # D12102) for two weeks, blood was drawn from the saphenous tail vein and the serum cholesterol concentration was determined using the Infinity Cholesterol Liquid Stable Reagent (Thermo Electron Corp.). For intact (non-castrated) mice, the animals were divided into the high fat/high cholesterol diet (HFHC) (Research Diets, diet # D12108) and LFNC groups with and without ezetimibe (30 mg/kg/day; Schering-Plough, New Brunswick, N.J.) and the mice continued on these diets for four weeks. For castrated mice, the mice were divided into 4 groups, 2 groups were castrated, and 2 groups were left intact. The mice were fed either the LFNC, or a low fat/high cholesterol diet (LFHC) (Research Diets, diet #D12104) for 80 days. Xenografts were initiated by injecting LNCaP (2×10^6 per site) with 1:1 volume of Matrigel (BD BioSciences, San Jose, Calif.) into the 4 dorsal quadrants of each mouse. In order to eliminate any injection bias, the mice were randomized prior to implantation and the implanter was blinded to which group each mouse was assigned. All animal procedures were done in compliance with Children's Hospital Boston's animal care and use policies. Tumors were measured daily from the initiation of the first palpable tumors and the mice sacrificed prior to reaching the maximum tumor burden (13-23 days post implantation). Terminal bleeds were taken (Cardiac puncture) for serology (triglyceride, bilirubin and other liver function tests were performed in the Dept. of Laboratory Medicine, Children's Hospital Boston, androgen levels were determined by a testosterone EIA, Diagnostic Systems Laboratories, Webster, Tex.). Tumors were removed, measured, weighed and either placed in OCT solution (Tissue-Tek, Torrance, Calif.) or snap frozen.
Following alteration of cholesterol levels, the mice from Example 3 were injected subcutaneously with 2×10^6 LNCaP cells in their flanks (4 tumors/mouse). Regimens were continued following implantation, and the experiment continued for 13 days following the initial appearance of tumors. Tumor volume was measured daily (FIG. 2B). […] The overall effect of diet and ezetimibe was independent and additive, not synergistic. […] Tumor take was >95% in all groups and no significant differences in tumor take were observed.

LNCaP xenograft tumors [2] = assay: Tumor membrane cholesterol analysis; assay type: in vivo, SCID mice; conditions: ezetimibe main effect p<0.0001, n=9/group
Procedure: Tumor cholesterol analysis. Tumors were finely minced in phosphate buffered saline (PBS) on ice and the level of cholesterol was determined as described previously (Boucher, K., Siegel, C. S., Sharma, P., Hauschka, P. V., and Solomon, K. R. 2006. HMG-CoA reductase inhibitors induce apoptosis in pericytes. Microvasc Res 71:91-102).

LNCaP xenograft tumors [3] = assay: Tumor cell apoptosis (TUNEL staining); assay type: in vivo, SCID mice; conditions: ezetimibe main effect p<0.0001, no synergy with diet (p=0.85)
Procedure: Apoptosis. Percentage of apoptotic cells in tumor sections was determined by TUNEL assay using the In Situ Cell Death Detection Kit (Roche Diagnostics Corp. Indianapolis, Ind.). Briefly, frozen tumor sections were fixed in 4% paraformaldehyde (PFA), permeabilized and the DNA stained with fluorescein following the manufacturer's instructions. Nuclei were counterstained with DAPI (Vector Labs, Burlingame, Calif.). Images were captured using a Zeiss microscope and the positive cells and nuclei were counted using Axiovision software 4.0.

LNCaP xenograft tumors [4] = assay: Tumor cell proliferation (Ki67 staining); assay type: in vivo, SCID mice
Procedure: (§2) Immunofluorescence. Tumor samples frozen in OCT were sectioned (3-20 μm thick), mounted on Superfrost slides (ThermoFisher Scientific, Waltham, Mass.), and air-dried for 30 min. Sections were then fixed using cold acetone (5 min), followed by 1:1 acetone:chloroform (5 min), and then acetone (5 min) or by using 4% PFA at room temp (30 min) followed by 0.025% PBS/Triton X-100 (5 min) to permeabilize the cells. Sections were washed with cold PBS 3× for 5 min each and were incubated in a protein blocking solution of PBS/Tween (0.1%) with 5% bovine serum albumin (BSA; Sigma) at room temp (30 min) and were then washed in cold PBS 3× for 5 min each. The appropriate primary antibodies diluted 1:200-1:1000 in blocking solution were incubated with the sections overnight at 4° C. Sections were washed 3× for 5 min in cold PBS, and incubated in blocking solution (10 min). The sections were then incubated with the appropriate fluorescent secondary reporter antibodies diluted 1:500-1:5000 in blocking solution at room temp (30 min) followed by washing 3× in PBS. Nuclei were counter-stained with DAPI. Double staining of CD31 with TSP-1 and CD31 with SMA were performed sequentially as described above. Blood vessel analysis was done using IPLab software (BD Biosciences Bioimaging, Rockville, Md.) as previously described (Bielenberg, D. R., Hida, Y., Shimizu, A., Kaipainen, A., Kreuter, M., Kim, C. C., and Klagsbrun, M. 2004. Semaphorin 3F, a chemorepulsant for endothelial cells, induces a poorly vascularized, encapsulated, nonmetastatic tumor phenotype. J Clin Invest 114:1260-1271). Thombospndin-1 (TSP-1) analysis was done using the outline spline in AxioVision 4.0 software. Ki67 positive cells and nuclei were quantified using AxioVision 4.0 software.

LNCaP xenograft tumors [5] = assay: Tumor hemoglobin quantification; assay type: in vivo, SCID mice; conditions: n=20
Procedure: Hemoglobin Assay. Tumors were finely minced in 1 ml of fresh PBS on ice. The minced tissue suspensions were centrifuged at 10,000 g at 4° C. (2 min) and the supernatant was removed. The optical density (OD) of the clarified supernatants was read at 650 nm (background) and 530 nm (hemoglobin) using a spectrophotometer (Boyle, M. D., and Ohanian, S. H. 1980. Evidence for the influence of the initial complement components on the assembly and activity of the membrane attack complex. J Immunol 124:2824-2827; Gee, A. P., Boyle, M. D., and Borsos, T. 1980. Distinction between C8-mediated and C8/C9-mediated hemolysis on the basis of independent 86Rb and hemoglobin release. J Immunol 124:1905-1910).

LNCaP xenograft tumors [6] = assay: Microvessel density (MVD), CD31 analysis; assay type: in vivo, SCID mice; conditions: ezetimibe p=0.013, larger effects with HFHC (p=0.01)
Procedure: as §2, with “Blood vessel analysis was done using IPLab software (BD Biosciences Bioimaging, Rockville, Md.) as previously described (Bielenberg, D. R., Hida, Y., Shimizu, A., Kaipainen, A., Kreuter, M., Kim, C. C., and Klagsbrun, M. 2004. Semaphorin 3F, a chemorepulsant for endothelial cells, induces a poorly vascularized, encapsulated, nonmetastatic tumor phenotype. J Clin Invest 114:1260-1271). Thombospndin-1 (TSP-1) analysis was done using the outline spline in AxioVision 4.0 software.” left out

LNCaP xenograft tumors [7] = assay: MVD, caveolin-1 analysis (immunoblotting and immunofluorescence); assay type: in vivo, SCID mice
Procedure: (§3) Immunofluorescence. Tumor samples frozen in OCT were sectioned (3-20 μm thick), mounted on Superfrost slides (ThermoFisher Scientific, Waltham, Mass.), and air-dried for 30 min. Sections were then fixed using cold acetone (5 min), followed by 1:1 acetone:chloroform (5 min), and then acetone (5 min) or by using 4% PFA at room temp (30 min) followed by 0.025% PBS/Triton X-100 (5 min) to permeabilize the cells. Sections were washed with cold PBS 3× for 5 min each and were incubated in a protein blocking solution of PBS/Tween (0.1%) with 5% bovine serum albumin (BSA; Sigma) at room temp (30 min) and were then washed in cold PBS 3× for 5 min each. The appropriate primary antibodies diluted 1:200-1:1000 in blocking solution were incubated with the sections overnight at 4° C. Sections were washed 3× for 5 min in cold PBS, and incubated in blocking solution (10 min). […] Ki67 positive cells and nuclei were quantified using AxioVision 4.0 software.
Lysates and Immunoblotting. […] Protein concentrations were determined by microBCA (Pierce/Thermo Scientific) and equal amounts of the lysates were subjected to SDS-PAGE and immunoblotting as described previously (Zhuang, L., Kim, J., Adam, R. M.-, Solomon, K. R., and Freeman, M. R. 2005. Cholesterol targeting alters lipid raft composition and cell survival in prostate cancer cells and xenografts. J Clin Invest 115:959-968).

LNCaP xenograft tumors [8] = assay: Fibroblast staining of tumor sections; assay type: in vivo, SCID mice; conditions: HFHC condition, p=0.03, n=55/group
Procedure: as §3, with “min). The sections were then incubated with the appropriate fluorescent secondary reporter antibodies diluted 1:500-1:5000 in blocking solution at room temp (30 min) followed by washing 3× in PBS. Nuclei were counter-stained with DAPI. Double staining of CD31 with TSP-1 and CD31 with SMA were performed sequentially as described above.” for “min).”

LNCaP xenograft tumors [9] = assay: Pericyte coverage of microvessels (SMA staining); assay type: in vivo, SCID mice; conditions: ezetimibe groups, p<0.0001
Procedure: as §3, with “min). The sections were then incubated with the appropriate fluorescent secondary reporter antibodies diluted 1:500-1:5000 in blocking solution at room temp (30 min) followed by washing 3× in PBS. Nuclei were counter-stained with DAPI. Double staining of CD31 with TSP-1 and CD31 with SMA were performed sequentially as described above.” for “min).”

thrombospondin-1 (TSP-1) = assay: Thrombospondin-1 (TSP-1) levels in tumor sections; assay type: in vivo, SCID mice; conditions: ezetimibe p<0.0001
Procedure: as §3, with “min). The sections were then incubated with the appropriate fluorescent secondary reporter antibodies diluted 1:500-1:5000 in blocking solution at room temp (30 min) followed by washing 3× in PBS. Nuclei were counter-stained with DAPI. Double staining of CD31 with TSP-1 and CD31 with SMA were performed sequentially as described above.” for “min).”

[10] = Serology (triglyceride, liver function tests) and feeding observation; assay type: in vivo, SCID mice
Procedure: as §1

VEGF or bFGF = VEGF or bFGF expression in the cohorts; assay type: in vivo, SCID mice; conditions: between the diet/drug cohorts, data not shown
[11] = literature (Jurado 2004; Knopp 2003); cited from earlier work

feeding behavior ([10]; observation, calorie intake 21.18 Kcal/d): did not alter feeding behavior
SMILES: O=C1[C@H](CC[C@H](O)c2ccc(F)cc2)[C@@H](c2ccc(O)cc2)N1c1ccc(F)cc1 [ezetimibe]
serum cholesterol (serum cholesterol): significant effects
serum cholesterol (serum cholesterol; listed as Ezetimibe): significant reductions
tumor wet weight at sacrifice ([1]; LFNC diet with drug, p=0.021 vs HFHC (0.88±0.71 g)): 0.63 ± 0.55 g
tumor wet weight at sacrifice ([1]; LFNC+Z group, p=0.021 vs HFHC (0.88±0.71)): 0.63±0.55 average grams/tumor site
tumor take ([1]; all diet/drug groups, no significant differences): > 95%
tumor growth rates (tumor volume) ([1]; ezetimibe 30 mg/kg/day added to diet, 13 days from first appearance of tumors, p=0.035): Significantly reduced
tumor cholesterol levels (membranes) (LNCaP xenograft tumors [2]): highly significant main effects; also recorded: independently affected
tumor cell apoptosis (relative level of TUNEL staining) (LNCaP xenograft tumors [3]): highly significant main effects; also recorded: significantly increased
relative level of Ki67 staining (LNCaP xenograft tumors [4]; HFHC diet w/ezetimibe (HFHC alone 41.16)): 30.32 (95% CI; 26.96-33.68)
relative level of Ki67 staining (LNCaP xenograft tumors [4]; LFNC diet w/ezetimibe (LFNC alone 28.78)): 25.57 (95% CI; 22.21-28.93)
tumor cell proliferation (Ki67), effect in words (LNCaP xenograft tumors [4]; ezetimibe by diet interaction p=0.027, magnitude depends on the diet): significant effect on lowering proliferation
relative hemoglobin/mg tumor tissue (LNCaP xenograft tumors [5]; HFHC+Z vs HFHC): statistical significance
relative hemoglobin/mg tumor tissue (LNCaP xenograft tumors [5]; LFNC vs LFNC+Z): not statistically different
microvessel density (relative level of CD31 staining) (LNCaP xenograft tumors [6]): highly significant main effect; also recorded: significantly suppressed
average caveolin-1 signal, immunoblotting (LNCaP xenograft tumors [7]; both diet conditions, p=0.027, n=6/group): significant drug effect in lowering caveolin
relative level of caveolin-1 staining, immunofluorescence (LNCaP xenograft tumors [7]; ezetimibe p<0.0001, n=43/group): highly significant main effects
relative level of fibroblast staining (LNCaP xenograft tumors [8]): statistically significant ezetimibe effect
pericyte coverage of vessels (relative level of SMA staining) (LNCaP xenograft tumors [9]): highly significant main effects; also recorded: dramatically increased
TSP-1 levels in tumors (relative level of TSP-1 staining) (thrombospondin-1 (TSP-1)): highly significant main effects; also recorded: enhanced
liver function (AST, ALP, bilirubin etc) ([10]; any mouse, all groups, data not shown): no liver dysfunction
serum triglyceride levels ([10]; ezetimibe cohorts, data not shown): no significant reduction; also recorded: nor were triglyceride levels significantly reduced
VEGF or bFGF expression (VEGF or bFGF): no differences
triglyceride levels in humans [11]: modest effect
